This note sets out measurements from a melting point compilation (Tetko et al.; mined from patent text by program, amines drawn as free bases though some values may be those of a salt).

The structures appear in SMILES notation.

As a reminder, the melting point is the temperature, or range, at which the solid turns liquid. On to `CC(C)(C)OC(=O)n1cc(C(=O)C2CSC(c3cccnc3)N2C(N)=O)c2ccccc21` (configuration not stated), for which the melting point was 141 to 143 °C.
Under `Cc1cc(C(=O)NCCO)ncc1C(c1c(F)ccc(F)c1F)S(=O)(=O)CCC(F)(F)F` (configuration not stated) stands 146 to 147 °C.
In the case of `CSc1ccc2sc3cc(F)ccc3c(=O)c2c1` it was 135 to 138 °C; in that of `O=C(Nc1cccc(C(F)(F)F)c1)NC1CCN(S(=O)(=O)c2ccc(Cl)cc2)CC1`, 116 to 118 °C; in that of `COc1ccc(-c2cc(C)cn2-c2ccc(S(C)(=O)=O)cc2)cc1`, 159 to 161 °C.
In the case of `Cc1cccc(C)c1NC(=O)c1ccc(N)cc1` it was 212 to 215 °C; in that of `Nc1ccccc1NC(=O)c1ccc(NC(=O)Cc2ccccc2)cc1`, 232 to 237 °C.
In turn, `CCCN(CCC)C1CCC2=C(CC(OC)=CC2)C1` (configuration not stated) gave a melting point of 47 to 51 °C.
`CC(C)(C)c1ccc(C(=O)Nc2cn3nc(-c4cnn(CCO)c4)ccc3n2)cc1` yielded a melting point of 226 to 229 °C.
Under `ClCCOc1ccc(Cl)c2[nH]cc(Cl)c12` stands 106 to 108 °C; under `CCCc1c(OCCCOc2ccc(-c3coc(C)n3)c(OC)c2CCC)ccc2c1OC(C(=O)O)CC2` (configuration not stated), 111 to 115 °C.
Under `CCc1cnc(N2CCC(c3ccc(COc4ccc(C#N)c(F)c4)nc3)CC2)nc1` stands 129 to 131 °C; under `O=C1CN=C(c2ccccc2)c2ccccc2N1`, 180 to 181 °C; under `CCCCCCCCCCCc1cc2ccc(C(=O)OC)cc2[nH]1`, 84 to 86 °C.
In the case of `COCc1cc(-c2ncc3[nH]c4cccc(OCc5ccccc5)c4c3c2COC)no1` it was 133 to 135 °C; in that of `CC(C)(C)OC(=O)C1Cc2ccccc2CN1C(=O)CBr` (configuration not stated), 92 to 95 °C; in that of `CC(=O)c1cccc(Oc2ncccc2OCCCc2ccncc2)c1`, 117 to 119 °C.
Compound `CCCc1nc2c(N)nc3cccnc3c2n1CCCCN(OC)C(=O)c1ccccc1` yielded a melting point of 125 to 127 °C.
Under `CSc1nccc(Oc2ccc(NC(=O)OC(C)(C)C)c3ccccc23)n1` stands 173 to 174 °C; under `CCCC=Nc1cc(CO)cc(Nc2c3ccccc3nc3ccccc23)c1`, 228 to 230 °C.
Under `COc1ccc(C=CC(=O)c2c(OC)cc(OC)cc2OC(=O)CCCC(=O)O)cc1` stands 131 to 132 °C; under `Nc1ccc(F)c2c1C(=O)c1ccccc1-2`, 205 to 206 °C; under `CCCCNC(=O)NS(=O)(=O)c1c(SC)cccc1SC`, 151 to 154 °C.
Under `C[C@@H](N1CCN(C(=S)Nc2ccccc2)CC1)[C@](O)(Cn1cncn1)c1ccc(F)cc1F` stands 106 to 108 °C; under `COC(=O)c1ccc(-c2noc(C)n2)s1`, 134 to 136 °C; under `CCOC(OCC)c1nc(N)nc(N)c1-c1cccc(Cl)c1Cl`, 214 to 217 °C.
Consider `Clc1cccc(Nc2ncnc3[nH]nc(N4CCOCC4)c23)c1`, for which the melting point lay in the range of 275 to 276 °C.
In the case of `CCOC(=N)c1cccc(Cc2ccccc2)c1` it was 121 to 122 °C; in that of `COc1cc(CCC[C@H]2OC(=O)NC2=O)ccc1OCc1nc(-c2ccco2)oc1C`, 122 to 123 °C; in that of `CN1C(=O)C(c2cccc(Br)c2)(c2c[nH]c(C=O)c2)N=C1N` (configuration not stated), 142 to 151 °C.
Under `CCC(=O)c1ccc(O)c(C(C)C)c1` stands 105 °C; under `CN1CN(C)c2nc3n(Cc4ccccc4)c(=O)c(Cc4ccccc4)c(O)n3c2C1=O`, 176 to 179 °C; under `COc1ccc(-c2nc3n(c2-c2ccc(OC)cc2)CCS3)cc1`, 155 to 158 °C.
As to `Oc1cccc(Nc2nnc(Cc3ccncc3)c3ccccc23)c1`, the melting point was in the range of 217 to 219 °C.
In turn, `CNS(=O)(=O)c1ccc(C2=NC(C)(C)Cc3cc(OC)c4c(c32)CC(C)(C)O4)cc1` had a melting point of 146 to 148 °C.
In the case of `Cc1nc(N)nc(N)c1CCC(C)c1ccc(Cl)cc1` (configuration not stated) it was 125 to 128 °C; in that of `O=C(O)COC(=O)c1ccccc1O`, 131 to 132 °C.
`CC(C)(C)OC(=O)N(Cc1ccccc1)C1(CO)CC1` had a melting point of 68 °C.
In the case of `O=C1C=C(NC(=O)C(=O)c2cn(Cc3ccc(F)cc3)c3ccccc23)CO1` it was 260 to 262 °C; in that of `O=c1[nH]nc2ccc(-c3ccc(Cl)c(Cl)c3)nn12`, 336 to 338 °C; in that of `CCc1nc2c(C)cc(C)nc2n1Cc1ccc(C(c2ccccc2C)C(C(=O)O)C(=O)O)cc1` (configuration not stated), 160 to 161 °C.
In the case of `COC(=O)c1ccc2c([N+](=O)[O-])cc3c(c2c1)C(CCl)CN3` (configuration not stated) it was 161 to 163 °C; in that of `N=C1SCCN1c1ccccc1[N+](=O)[O-]`, 127 °C; in that of `CCOC(=O)Cn1cccc(O)c1=O`, 141 to 151 °C.
Under `CN1C(=O)CN=C(c2ccccc2F)c2cc(NC(=O)NCCCO)ccc21` stands 118 to 119 °C; under `O=CNNc1ccc(NC(=S)N2CCCCC2)cc1`, 174 to 176 °C.
`N#CCN1CCC(c2noc3cc(F)ccc23)CC1` displayed a melting point of 130 to 132 °C.
In the case of `Clc1ccc(-c2cc3nc(N4CCOCC4)c4ccccc4c3nn2)cc1` it was 244 to 246 °C; in that of `CCOCc1nc2c(N)nc3c(c2n1CCCCS(C)(=O)=O)CCCC3`, 170 to 171 °C; in that of `CC(=O)Nc1ccc(Oc2c(-c3ccc(S(C)(=O)=O)cc3)cnn(CC(F)(F)F)c2=O)cc1`, 215 to 216 °C.
The compound `O=C(OC1CCCCC1)c1ncn2c1[C@@H]1CCCN1C(=O)c1c-2cccc1C(F)(F)F` had a melting point of 193 to 194 °C.
In the case of `O=C(O)CCCNC(=O)c1ccccc1NC(=O)c1ccccc1Cl` it was 110 to 112 °C.
Under `O=C(O)Cc1ccc(N2Cc3ccccc3C2=O)cc1` stands 210 to 211 °C; under `Cn1c2cc(Cl)ccc2c2c(=O)[nH]c(-c3ccncc3)nc21`, more than 300 °C; under `O=c1oc2c(O)c(O)ccc2c2cc(O)c(O)cc12`, more than 250 °C.
Regarding `CN(C)c1ncc(C(=O)NCc2ccccc2)c(S)n1`, the melting point was 175 to 178 °C.
With `COc1ccc(COc2cccc(C(=O)Nc3ccc(C#N)cn3)c2)cc1`, the melting point was in the range of 132 to 134 °C.
Under `O=C(O)COc1cc2onc(-c3ccccc3F)c2cc1Br` stands 223 to 224 °C.
Under `CC(C)(C)OC(=O)Nc1cccc(C2(O)CCOCC2)c1` stands 140 to 142 °C; under `Nc1nc(-c2ccco2)c(C(=O)C2CCC(=O)CC2)s1`, 232 to 235 °C; under `COc1ccc2c(c1)C(=O)C(=Cc1ccc(F)cc1)CC2`, 129 to 130 °C.
Take `COC1(C)CC(C)(C)c2ccc(Oc3ccc([N+](=O)[O-])cc3)cc2O1` (configuration not stated): the melting point amounted to 125 °C.
Under `COC(=O)NC1CCc2ccsc2C1` (configuration not stated) stands 156 to 157 °C; under `COc1ccc(COc2ncccc2C(=O)O)cc1OC1CC2CCC1C2` (configuration not stated), 50 °C.
Under `CC(C)(C)c1ccc(CCOc2ncnc3ncccc23)cc1` stands 77 to 79 °C.
In the case of `CN1CCN(Cc2ccccc2)C(c2ccccc2)C1` (configuration not stated) it was 58 to 60 °C; in that of `COC(=O)NNC(=O)Cl`, 55 to 58 °C.
On to `C#CCCCCCCCOc1cccc(C(N)=O)c1`, for which the melting point was in the range of 82 to 83 °C.
Under `O=c1c2c([nH]c3nc(NCc4ccccc4)nn13)CCCS2` stands 332 to 335 °C.
In the case of `CC(=O)N(CCCOc1ccc(C(=O)O)cc1)c1ccc(Cl)cc1`, the melting point was in the range of 169 to 171 °C.
Under `CC(C)(C(=O)O)n1c(=O)[nH]c2ccc(Cl)cc2c1=O` stands 256 to 259 °C; under `O=C(CNC(=O)CSC(=O)c1ccccc1)CNC(=O)CSC(=O)c1ccccc1`, 134 to 140 °C.
Turning to `CCCn1nc2c(N)nc3ccccc3c2c1CCNC(=O)NC(C)C`, the melting point lay within 197 to 198 °C.
In the case of `COc1cc2c(Cl)c(C(N)=O)cnc2cc1F` it was 228 °C; in that of `NC(=O)c1cnn2c1NCC=C2c1cccc(F)c1`, 122 to 125 °C; in that of `COc1ccc(C(=O)c2ccc(F)cc2F)c(Cl)c1Cl`, 139 to 141 °C.
Under `NC(c1ccc2c(c1)OCO2)P(O)O` (configuration not stated) stands 235 to 236 °C; under `Cc1noc(NS(=O)(=O)c2c(Cc3ccc4c(c3)OCO4)sc3ccccc23)c1C`, 135 to 137 °C.
Under `CC(=O)Nc1nc2ccccc2n1-c1nc(N2CCOCC2)nc(N2CCOCC2)n1` stands 150 to 153 °C; under `CCCCCCCCOc1ccc(C(=O)Oc2ccc(-c3ccc(OC(=O)[C@H]4CCCO4)cc3)cc2)cc1`, 73 °C; under `Cc1cc(O)c(O)cc1Br`, 92 to 98 °C.
Compound `CCOC(=O)c1c(CC)ncnc1NCCc1ccc(CCOS(C)(=O)=O)cc1` registered a melting point of 84 to 86 °C.
In the case of `COc1ccc(C2=NN(C3CCCCCC3)C(=O)[C@H]3CC=CC[C@@H]23)cc1OC(F)F` (relative stereo) it was 83 °C; in that of `COC(=O)CC(Nc1ccccc1)c1ccccc1` (configuration not stated), 110 °C; in that of `CC(C)(C)OC(=O)C(CCC(N)=O)N1Cc2c(OCc3ccc(CN4C5CCC4COC5)cc3)cccc2C1=O` (configuration not stated), 243 to 245 °C.
Compound `O=C(Cl)c1ccc2c(c1I)OCO2` showed a melting point of 69 to 70 °C.
In turn, `CC1(C)CCC(C)(C)c2cc3cc(-c4ccc(C(=O)O)cc4)ccc3cc21` had a melting point of 282 °C.
Under `Cc1nc(-c2ccccc2)nc(-c2cccc([N+](=O)[O-])c2)c1CN1CCN(C)CC1` stands 138 to 140 °C; under `CCn1ncc2c1ncc1c(NCCN(C)C)nc3cc(C)nn3c12`, 124 to 126 °C; under `CCCCc1c(C(=O)c2ccc(OC)cc2)c2cc([N+](=O)[O-])ccc2n1C`, 168 °C.
Under `CSc1ncc2cc(Oc3ccc(F)cc3F)c(NC(=O)NC(C)(C)C)nc2n1` stands 195 to 201 °C; under `CC[C@@H](c1ccccc1)N(Cc1ccc(C(=O)O)c(F)c1F)S(=O)(=O)c1ccc(Cl)cc1`, 127 to 129 °C.
